# Data published in patent US6706740B2, “Fungicidal heterocyclic aromatic amides and their compositions, methods of use and preparation” (Dow AgroSciences LLC, priority 1999, dated 2004).
# System: Phytophthora infestans—PHYTIN
# Test: whole plant or invertebrate
# Type: in vivo
# Conditions: Phytophthora, in Solanum lycopersicum, 24 h, read-out: PHYTIN in vivo 1 Day Protectant
row,SMILES,pest or weed control at 100 ppm [%]
1,COc1ccnc(C(=O)Nc2ccc(C(=O)Nc3cccc(C(F)(F)F)c3)cc2)c1O [Compound 449],< 25
2,COc1ccnc(C(=O)NC2CCCCCCC2)c1O [Compound 282],< 25
3,COc1ccnc(C(=O)N[C@H]2C[C@@H](C(F)(F)F)C[C@@H](C(F)(F)F)C2)c1OC(C)=O [Compound 576],< 25
4,CCCO[C@@H]1[C@@H](OCCC)[C@H](OCCC)CO[C@H]1NC(=O)c1nccc(OC)c1O [Compound 331],< 25

# System: Stagonospora nodorum (Leptosphaeria nodorum—LEPTNO)
# Test: In vitro fungal growth inhibition, Stagonospora nodorum (LEPTNO)
# Type: cell-based
# Conditions: Leptosphaeria; 25 ppm in growth medium; read-out: LEPTNO in vitro Growth Inhibition
row,SMILES,inhibition at 25 ppm [%]
1,COc1ccnc(C(=O)Nc2ccc(C(=O)Nc3cccc(C(F)(F)F)c3)cc2)c1O [Compound 449],< 80
2,COc1ccnc(C(=O)NC2CCCCCCC2)c1O [Compound 282],< 80
3,CCCO[C@@H]1[C@@H](OCCC)[C@H](OCCC)CO[C@H]1NC(=O)c1nccc(OC)c1O [Compound 331],< 80

# Same assay, conditions: Leptosphaeria; 25 ppm in the growth medium; read-out: LEPTNO in vitro Growth Inhibition
row,SMILES,inhibition at 25 ppm [%]
1,COc1ccnc(C(=O)N[C@H]2C[C@@H](C(F)(F)F)C[C@@H](C(F)(F)F)C2)c1OC(C)=O [Compound 576],< 80

# System: Mycosphaerella graminicola (Septoria tritici—SEPTTR)
# Test: In vitro fungal growth inhibition, Mycosphaerella graminicola (SEPTTR)
# Type: cell-based
# Conditions: Zymoseptoria tritici; 25 ppm in growth medium; read-out: SEPTTR in vitro Growth Inhibition
row,SMILES,inhibition at 25 ppm [%]
1,COc1ccnc(C(=O)Nc2ccc(C(=O)Nc3cccc(C(F)(F)F)c3)cc2)c1O [Compound 449],< 80
2,COc1ccnc(C(=O)NC2CCCCCCC2)c1O [Compound 282],< 80
3,CCCO[C@@H]1[C@@H](OCCC)[C@H](OCCC)CO[C@H]1NC(=O)c1nccc(OC)c1O [Compound 331],< 80

# Same assay, conditions: Zymoseptoria tritici; 25 ppm in the growth medium; read-out: SEPTTR in vitro Growth Inhibition
row,SMILES,inhibition at 25 ppm [%]
1,COc1ccnc(C(=O)N[C@H]2C[C@@H](C(F)(F)F)C[C@@H](C(F)(F)F)C2)c1OC(C)=O [Compound 576],< 80

# System: Phytophthora infestans (PHYTIN)
# Test: microbe, parasite or virus in culture
# Type: cell-based
# Conditions: Phytophthora infestans, read-out: PHYTIN in vitro Growth Inhibition
row,SMILES,inhibition at 25 ppm [%]
1,COc1ccnc(C(=O)Nc2ccc(C(=O)Nc3cccc(C(F)(F)F)c3)cc2)c1O [Compound 449],< 80
2,COc1ccnc(C(=O)NC2CCCCCCC2)c1O [Compound 282],< 80
3,COc1ccnc(C(=O)N[C@H]2C[C@@H](C(F)(F)F)C[C@@H](C(F)(F)F)C2)c1OC(C)=O [Compound 576],< 80
4,CCCO[C@@H]1[C@@H](OCCC)[C@H](OCCC)CO[C@H]1NC(=O)c1nccc(OC)c1O [Compound 331],< 80

# System: Septoria tritici—SEPTTR
# Test: Leaf Blotch of Wheat, in vivo whole plant, 24 Hour Protectant
# Conditions: Zymoseptoria tritici, 24 h, 100 ppm spray, 24 hour protectant, wheat; control of fungal infection vs untreated plants; read-out: SEPTTR in vivo 1 Day Protectant
row,SMILES,pest or weed control at 100 ppm [%]
1,COc1ccnc(C(=O)NC2CCCCCCC2)c1O [Compound 282],25 to 74

# Same assay, conditions: Zymoseptoria tritici, 24 h, 100 ppm spray, wheat, 24 hour protectant; control of fungal infection vs untreated plants; read-out: SEPTTR in vivo 1 Day Protectant
row,SMILES,pest or weed control at 100 ppm [%]
1,COc1ccnc(C(=O)Nc2ccc(C(=O)Nc3cccc(C(F)(F)F)c3)cc2)c1O [Compound 449],25 to 74
2,CCCO[C@@H]1[C@@H](OCCC)[C@H](OCCC)CO[C@H]1NC(=O)c1nccc(OC)c1O [Compound 331],< 25

# Same assay, conditions: Zymoseptoria tritici, 24 h, wheat plants sprayed at 100 ppm, inoculated after 24 hours; control of fungal infection vs untreated plants; read-out: SEPTTR in vivo 1 Day Protectant
row,SMILES,pest or weed control at 100 ppm [%]
1,COc1ccnc(C(=O)N[C@H]2C[C@@H](C(F)(F)F)C[C@@H](C(F)(F)F)C2)c1OC(C)=O [Compound 576],25 to 74

# System: Ustilago maydis (USTIMA)
# Test: microbe, parasite or virus in culture
# Type: cell-based
# Conditions: Mycosarcoma maydis, read-out: USTIMA in vitro Growth Inhibition
row,SMILES,inhibition at 25 ppm [%]
1,COc1ccnc(C(=O)Nc2ccc(C(=O)Nc3cccc(C(F)(F)F)c3)cc2)c1O [Compound 449],< 80
2,COc1ccnc(C(=O)NC2CCCCCCC2)c1O [Compound 282],< 80
3,COc1ccnc(C(=O)N[C@H]2C[C@@H](C(F)(F)F)C[C@@H](C(F)(F)F)C2)c1OC(C)=O [Compound 576],< 80
4,CCCO[C@@H]1[C@@H](OCCC)[C@H](OCCC)CO[C@H]1NC(=O)c1nccc(OC)c1O [Compound 331],< 80

# System: Puccinia recondita—PUCCRT
# Test: Brown Rust of Wheat, in vivo whole plant, 24 Hour Protectant
# Conditions: Puccinia; 100 ppm spray, 24 hour protectant, wheat; control of fungal infection vs untreated plants; read-out: PUCCRT in vivo 1 Day Protectant
row,SMILES,pest or weed control at 100 ppm [%]
1,COc1ccnc(C(=O)NC2CCCCCCC2)c1O [Compound 282],25 to 74

# Same assay, conditions: Puccinia; 100 ppm spray, wheat, 24 hour protectant; control of fungal infection vs untreated plants; read-out: PUCCRT in vivo 1 Day Protectant
row,SMILES,pest or weed control at 100 ppm [%]
1,COc1ccnc(C(=O)Nc2ccc(C(=O)Nc3cccc(C(F)(F)F)c3)cc2)c1O [Compound 449],< 25
2,CCCO[C@@H]1[C@@H](OCCC)[C@H](OCCC)CO[C@H]1NC(=O)c1nccc(OC)c1O [Compound 331],< 25

# Same assay, conditions: Puccinia; wheat plants sprayed at 100 ppm, inoculated after 24 hours; control of fungal infection vs untreated plants; read-out: PUCCRT in vivo 1 Day Protectant
row,SMILES,pest or weed control at 100 ppm [%]
1,COc1ccnc(C(=O)N[C@H]2C[C@@H](C(F)(F)F)C[C@@H](C(F)(F)F)C2)c1OC(C)=O [Compound 576],25 to 74

# System: Magnaporthe grisea (Pyricularia oryzae—PYRIOR)
# Test: microbe, parasite or virus in culture
# Type: cell-based
# Conditions: Pyricularia oryzae, read-out: PYRIOR in vitro Growth Inhibition
row,SMILES,inhibition at 25 ppm [%]
1,COc1ccnc(C(=O)Nc2ccc(C(=O)Nc3cccc(C(F)(F)F)c3)cc2)c1O [Compound 449],> 80
2,COc1ccnc(C(=O)NC2CCCCCCC2)c1O [Compound 282],< 80
3,COc1ccnc(C(=O)N[C@H]2C[C@@H](C(F)(F)F)C[C@@H](C(F)(F)F)C2)c1OC(C)=O [Compound 576],< 80
4,CCCO[C@@H]1[C@@H](OCCC)[C@H](OCCC)CO[C@H]1NC(=O)c1nccc(OC)c1O [Compound 331],> 80

# System: Erysiphe graminis—ERYSGT
# Test: Powdery Mildew of Wheat, in vivo whole plant, 24 Hour Protectant
# Conditions: Erysiphe; 100 ppm spray, 24 hour protectant, wheat; control of fungal infection vs untreated plants; read-out: ERYSGT in vivo 1 Day Protectant
row,SMILES,pest or weed control at 100 ppm [%]
1,COc1ccnc(C(=O)NC2CCCCCCC2)c1O [Compound 282],< 25

# Same assay, conditions: Erysiphe; 100 ppm spray, wheat, 24 hour protectant; control of fungal infection vs untreated plants; read-out: ERYSGT in vivo 1 Day Protectant
row,SMILES,pest or weed control at 100 ppm [%]
1,COc1ccnc(C(=O)Nc2ccc(C(=O)Nc3cccc(C(F)(F)F)c3)cc2)c1O [Compound 449],< 25
2,CCCO[C@@H]1[C@@H](OCCC)[C@H](OCCC)CO[C@H]1NC(=O)c1nccc(OC)c1O [Compound 331],< 25

# Same assay, conditions: Erysiphe; wheat plants sprayed at 100 ppm, inoculated after 24 hours; control of fungal infection vs untreated plants; read-out: ERYSGT in vivo 1 Day Protectant
row,SMILES,pest or weed control at 100 ppm [%]
1,COc1ccnc(C(=O)N[C@H]2C[C@@H](C(F)(F)F)C[C@@H](C(F)(F)F)C2)c1OC(C)=O [Compound 576],< 25

# System: Rhizoctonia solani (RHIZSO)
# Test: microbe, parasite or virus in culture
# Type: cell-based
# Conditions: Rhizoctonia solani, read-out: RHIZSO in vitro Growth Inhibition
row,SMILES,inhibition at 25 ppm [%]
1,COc1ccnc(C(=O)Nc2ccc(C(=O)Nc3cccc(C(F)(F)F)c3)cc2)c1O [Compound 449],> 80
2,COc1ccnc(C(=O)NC2CCCCCCC2)c1O [Compound 282],< 80
3,COc1ccnc(C(=O)N[C@H]2C[C@@H](C(F)(F)F)C[C@@H](C(F)(F)F)C2)c1OC(C)=O [Compound 576],< 80
4,CCCO[C@@H]1[C@@H](OCCC)[C@H](OCCC)CO[C@H]1NC(=O)c1nccc(OC)c1O [Compound 331],< 80

# System: Leptosphaeria nodorum—LEPTNO
# Test: Glume Blotch of Wheat, in vivo whole plant, 24 Hour Protectant
# Conditions: Leptosphaeria; 100 ppm spray, 24 hour protectant, wheat; control of fungal infection vs untreated plants; read-out: LEPTNO in vivo 1 Day Protectant
row,SMILES,pest or weed control at 100 ppm [%]
1,COc1ccnc(C(=O)NC2CCCCCCC2)c1O [Compound 282],25 to 74

# Same assay, conditions: Leptosphaeria; 100 ppm spray, wheat, 24 hour protectant; control of fungal infection vs untreated plants; read-out: LEPTNO in vivo 1 Day Protectant
row,SMILES,pest or weed control at 100 ppm [%]
1,COc1ccnc(C(=O)Nc2ccc(C(=O)Nc3cccc(C(F)(F)F)c3)cc2)c1O [Compound 449],25 to 74
2,CCCO[C@@H]1[C@@H](OCCC)[C@H](OCCC)CO[C@H]1NC(=O)c1nccc(OC)c1O [Compound 331],25 to 74

# Same assay, conditions: Leptosphaeria; wheat plants sprayed at 100 ppm, inoculated after 24 hours; control of fungal infection vs untreated plants; read-out: LEPTNO in vivo 1 Day Protectant
row,SMILES,pest or weed control at 100 ppm [%]
1,COc1ccnc(C(=O)N[C@H]2C[C@@H](C(F)(F)F)C[C@@H](C(F)(F)F)C2)c1OC(C)=O [Compound 576],25 to 74
